From article PMC5843811, “^44Sc for labeling of DOTA- and NODAGA-functionalized peptides: preclinical in vitro and in vivo investigations” (EJNMMI Radiopharmacy and Chemistry, 2016)
Read-outs that look alike come from different tables or passages of the source.

Experiments:
U87MG tumor-bearing mice = assay: PET/CT imaging of U87MG tumor-bearing mice; format: in vivo; settings: 3 h after i.v. injection of ~10 MBq (~1 nmol), one or two mice
Procedure: The energy window was set to 150–650 keV. […] All static PET scans lasted for 20 min.

[1] = Biodistribution in U87MG tumor-bearing mice; format: in vivo; settings: female, CD-1 nude (athymic nude), mouse, iv, total radioactivity, i.v. ~5 MBq (~1 nmol), mean ± SD; for tissue to tissue ratio at 0.5 h / tissue uptake at 0.5 h: 30 min p.i.; for tissue to tissue ratio at 2 h / tissue uptake at 2 h: 2 h p.i.; for tissue to tissue ratio at 5 h / tissue uptake at 5 h: 5 h p.i.
[2] = U87MG tumor / blood, n=3, read-out: Tumor-to-blood ratio
[3] = U87MG tumor / kidneys, n=3, read-out: Tumor-to-kidney ratio
[4] = U87MG tumor / liver, n=3, read-out: Tumor-to-liver ratio
[5] = U87MG tumor, n=3, read-out: Biodistribution, U87MG Tumor
[6] = blood, 5 MBq per mouse, n=3, read-out: Biodistribution, Blood
[7] = bone, 5 MBq per mouse, n=3, read-out: Biodistribution, Bone
[8] = brain, 5 MBq per mouse, n=3, read-out: Biodistribution, Brain
[9] = heart, 5 MBq per mouse, n=3, read-out: Biodistribution, Heart
[10] = intestines, 5 MBq per mouse, n=3, read-out: Biodistribution, Intestines
[11] = kidneys, n=3, read-out: Biodistribution, Kidneys
[12] = liver, n=3, read-out: Biodistribution, Liver
[13] = lung, 5 MBq per mouse, n=3, read-out: Biodistribution, Lung
[14] = muscle, 5 MBq per mouse, n=3, read-out: Biodistribution, Muscle
[15] = pancreas, 5 MBq per mouse, n=3, read-out: Biodistribution, pancreas
[16] = skin, 5 MBq per mouse, n=3, read-out: Biodistribution, Skin
[17] = spleen, 5 MBq per mouse, n=3, read-out: Biodistribution, Spleen
[18] = stomach, 5 MBq per mouse, n=3, read-out: Biodistribution, Stomach

N=C(N)NCCC[C@@H]1NC(=O)[C@H](CCCCNC(=O)CN2CCN(CC(=O)O)CCN(CC(=O)O)CCN(CC(=O)O)CC2)NC(=O)[C@@H](Cc2ccccc2)NC(=O)[C@H](CC(=O)O)NC(=O)CNC1=O [^44Sc-DOTA-RGD, metal not drawn]
PET/CT distribution of radioactivity (in words) (U87MG tumor-bearing mice): clearly less accumulation of radioactivity in the liver than ^68Ga-DOTA-RGD
tissue to tissue ratio at 0.5 h [1, 2]: 4.82 ± 1.6
tissue to tissue ratio at 2 h [1, 2]: 40.1 ± 15.6
tissue to tissue ratio at 5 h [1, 2]: 47.2 ± 18
tissue to tissue ratio at 0.5 h [1, 3]: 1.16 ± 0.29
tissue to tissue ratio at 2 h [1, 3]: 1.77 ± 0.13
tissue to tissue ratio at 5 h [1, 3]: 1.82 ± 0.21
tissue to tissue ratio at 0.5 h [1, 4]: 0.99 ± 0.14
tissue to tissue ratio at 2 h [1, 4]: 0.61 ± 0.04
tissue to tissue ratio at 5 h [1, 4]: 2.9 ± 0.38
tissue uptake at 0.5 h [1, 5]: 4.88 ± 0.67 %ID/g
tissue uptake at 2 h [1, 5]: 2.99 ± 0.16 %ID/g
tissue uptake at 5 h [1, 5]: 3 ± 0.38 %ID/g
tissue uptake at 0.5 h [1, 6]: 1.1 ± 0.29 %ID/g
tissue uptake at 2 h [1, 6]: 0.08 ± 0.03 %ID/g
tissue uptake at 5 h [1, 6]: 0.07 ± 0.03 %ID/g
tissue uptake at 0.5 h [1, 7]: 1.17 ± 0.07 %ID/g
tissue uptake at 2 h [1, 7]: 0.56 ± 0.03 %ID/g
tissue uptake at 5 h [1, 7]: 0.52 ± 0.11 %ID/g
tissue uptake at 0.5 h [1, 8]: 0.12 ± 0.05 %ID/g
tissue uptake at 2 h [1, 8]: 0.06 ± 0.01 %ID/g
tissue uptake at 5 h [1, 8]: 0.06 ± 0.01 %ID/g
tissue uptake at 0.5 h [1, 9]: 0.96 ± 0.3 %ID/g
tissue uptake at 2 h [1, 9]: 0.31 ± 0.04 %ID/g
tissue uptake at 5 h [1, 9]: 0.3 ± 0.06 %ID/g
tissue uptake at 0.5 h [1, 10]: 1.88 ± 0.18 %ID/g
tissue uptake at 2 h [1, 10]: 1.01 ± 0.04 %ID/g
tissue uptake at 5 h [1, 10]: 1.07 ± 0.04 %ID/g
tissue uptake at 2 h ([1]; kidneys, 5 MBq per mouse, n=3, read-out: Biodistribution, Kidneys): 1.69 ± 0.09 %ID/g
tissue uptake at 0.5 h [1, 11]: 4.44 ± 0.51 %ID/g
tissue uptake at 5 h [1, 11]: < 2 %ID/g
tissue uptake at 0.5 h [1, 12]: 5.16 ± 0.99 %ID/g
tissue uptake at 2 h [1, 12]: 4.9 ± 0.13 %ID/g
tissue uptake at 5 h [1, 12]: ~1 %ID/g
tissue uptake at 0.5 h [1, 13]: 2.17 ± 0.7 %ID/g
tissue uptake at 2 h [1, 13]: 0.72 ± 0.11 %ID/g
tissue uptake at 5 h [1, 13]: 0.52 ± 0.04 %ID/g
tissue uptake at 0.5 h [1, 14]: 0.66 ± 0.26 %ID/g
tissue uptake at 5 h [1, 14]: 0.28 ± 0.04 %ID/g
tissue uptake at 2 h [1, 15]: 0.35 ± 0.03 %ID/g
tissue uptake at 5 h [1, 15]: 0.39 ± 0.02 %ID/g
tissue uptake at 0.5 h ([1]; pancreas, n=3, read-out: Biodistribution, pancreas): 0.94 ± 0.49 %ID/g
tissue uptake at 0.5 h [1, 16]: 2.28 ± 0.39 %ID/g
tissue uptake at 2 h [1, 16]: 1.23 ± 0.2 %ID/g
tissue uptake at 5 h [1, 16]: 0.97 ± 0.06 %ID/g
tissue uptake at 0.5 h [1, 17]: 3.66 ± 0.87 %ID/g
tissue uptake at 2 h [1, 17]: 2.82 ± 0.28 %ID/g
tissue uptake at 5 h [1, 17]: 1.06 ± 0.18 %ID/g
tissue uptake at 0.5 h [1, 18]: 1.78 ± 0.23 %ID/g
tissue uptake at 2 h [1, 18]: 0.84 ± 0.19 %ID/g
tissue uptake at 5 h [1, 18]: 0.72 ± 0.07 %ID/g
